Data from patent publication US20170050957A1, “4-AMINO-6-(HETEROCYCLIC)PICOLINATES AND 6-AMINO-2-(HETEROCYCLIC)PYRIMIDINE-4-CARBOXYLATES AND THEIR USE AS HERBICIDES” (Dow AgroSciences LLC, priority 2013, published 2017).
Where two headings read alike, the source gives them in different places.

Tests used:
[1] = system: Key Grass and Sedge Weeds as well as Grass Crops; assay: Post-emergent Test II herbicidal activity (Table 16); assay type: in vivo; details: post-emergence, 336 h, 14 days after application; for pest or weed control at 35 g/ha: 35 g ai/ha; for pest or weed control at 70 g/ha: 70 g ai/ha; for pest or weed control at 140 g/ha: 140 g ai/ha
Summary of the method: (§1)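 Post-emergence spray; seedlings 7-21 d old, 1st-2nd true leaf; 187 L/ha; serial rates 1×-1/16×; solvent blank controls; subirrigated; visual % injury at 14 d.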

[2] = system: Key Broadleaf Weed and Crop Species; assay: Post-emergent Test II herbicidal activity (Table 15); assay type: in vivo; details: post-emergence, 336 h, 14 d; for pest or weed control at 35 g/ha: 35 g ai/ha; for pest or weed control at 70 g/ha: 70 g ai/ha; for pest or weed control at 140 g/ha: 140 g ai/ha
Summary of the method: as §1

[3] = Cyperus esculentus, yellow nutsedge (Cyperus esculentus), read-out: Visual Growth Reduction (%) 14 Days After Application CYPES
[4] = Echinochloa crus-galli, barnyardgrass (Echinochloa crus-galli), read-out: Visual Growth Reduction (%) 14 Days After Application ECHCG
[5] = Oryza sativa, rice (Oryza sativa), read-out: Visual Growth Reduction (%) 14 Days After Application ORYSA
[6] = Setaria faberi, giant foxtail (Setaria faberi), read-out: Visual Growth Reduction (%) 14 Days After Application SETFA
[7] = Triticum aestivum, wheat, spring (Triticum aestivum), read-out: Visual Growth Reduction (%) 14 Days After Application TRZAS
[8] = Zea mays, maize, corn (Zea mays), read-out: Visual Growth Reduction (%) 14 Days After Application ZEAMX
[9] = Abutilon theophrasti, velvetleaf (Abutilon theophrasti), read-out: Visual Growth Reduction (%) 14 Days After Application, ABUTH
[10] = Amaranthus retroflexus, redroot pigweed (Amaranthus retroflexus), read-out: Visual Growth Reduction (%) 14 Days After Application, AMARE
[11] = Brassica napus, oilseed rape, canola (Brassica napus), read-out: Visual Growth Reduction (%) 14 Days After Application, BRSNN
[12] = Chenopodium album, lambsquarters (Chenopodium album), read-out: Visual Growth Reduction (%) 14 Days After Application, CHEAL
[13] = Euphorbia heterophylla, wild poinsettia (Euphorbia heterophylla), read-out: Visual Growth Reduction (%) 14 Days After Application, EPHHL
[14] = Helianthus annuus, sunflower (Helianthus annuus), read-out: Visual Growth Reduction (%) 14 Days After Application, HELAN

`COC(=O)c1nc(-c2ccc3ccsc3c2)c(F)c(N)c1Cl` [Compound 3.12] gave a melting point of 185 to 189 °C, a pest or weed control at 35 g/ha [1, 3] of 0 to 29% and a pest or weed control at 70 g/ha [1, 3] of 0 to 29%. The pest or weed control at 140 g/ha [1, 3] was 0 to 29%, the pest or weed control at 35 g/ha [1, 4] was 85 to 94% and the pest or weed control at 70 g/ha [1, 4] was 85 to 94%. The pest or weed control at 140 g/ha [1, 4] was 85 to 94%, the pest or weed control at 35 g/ha [1, 5] was 0 to 29% and the pest or weed control at 70 g/ha [1, 5] was 0 to 29%. It also gave a pest or weed control at 140 g/ha [1, 5] of 0 to 29%, a pest or weed control at 35 g/ha [1, 6] of 0 to 29% and a pest or weed control at 70 g/ha [1, 6] of 0 to 29%. It also gave a pest or weed control at 140 g/ha [1, 6] of 0 to 29%, a pest or weed control at 35 g/ha [1, 7] of 0 to 29% and a pest or weed control at 70 g/ha [1, 7] of 0 to 29%. For the same molecule, the pest or weed control at 140 g/ha [1, 7] was 0 to 29%, the pest or weed control at 35 g/ha [1, 8] was 95 to 100% and the pest or weed control at 70 g/ha [1, 8] was 95 to 100%. The pest or weed control at 140 g/ha [1, 8] was 95 to 100%, the pest or weed control at 35 g/ha [2, 9] was 60 to 74% and the pest or weed control at 70 g/ha [2, 9] was 95 to 100%. The pest or weed control at 140 g/ha [2, 9] was 95 to 100%, the pest or weed control at 35 g/ha [2, 10] was 60 to 74% and the pest or weed control at 70 g/ha [2, 10] was 60 to 74%. For the same molecule, the pest or weed control at 140 g/ha [2, 10] was 85 to 94%, the pest or weed control at 35 g/ha [2, 11] was 0 to 29% and the pest or weed control at 70 g/ha [2, 11] was 0 to 29%. It also gave a pest or weed control at 140 g/ha [2, 11] of 30 to 44%, a pest or weed control at 35 g/ha [2, 12] of 95 to 100% and a pest or weed control at 70 g/ha [2, 12] of 95 to 100%. It also gave a pest or weed control at 140 g/ha [2, 12] of 95 to 100%, a pest or weed control at 35 g/ha [2, 13] of 60 to 74% and a pest or weed control at 70 g/ha [2, 13] of 60 to 74%. For the same molecule, the pest or weed control at 140 g/ha [2, 13] was 85 to 94%, the pest or weed control at 35 g/ha [2, 14] was 85 to 94% and the pest or weed control at 70 g/ha [2, 14] was 85 to 94%. It also gave a pest or weed control at 140 g/ha [2, 14] of 85 to 94%.

Work on `Nc1c(F)c(-c2ccc3ccsc3c2)nc(C(=O)O)c1Cl` [Compound 3.13] yielded a melting point of 165 to 167 °C, a pest or weed control at 35 g/ha [1, 3] of 0 to 29% and a pest or weed control at 70 g/ha [1, 3] of 0 to 29%. The pest or weed control at 140 g/ha [1, 3] was 0 to 29%, the pest or weed control at 35 g/ha [1, 4] was 60 to 74% and the pest or weed control at 70 g/ha [1, 4] was 60 to 74%. For the same molecule, the pest or weed control at 140 g/ha [1, 4] was 75 to 84%, the pest or weed control at 35 g/ha [1, 5] was 0 to 29% and the pest or weed control at 70 g/ha [1, 5] was 0 to 29%. It also gave a pest or weed control at 140 g/ha [1, 5] of 0 to 29%, a pest or weed control at 35 g/ha [1, 7] of 0 to 29% and a pest or weed control at 70 g/ha [1, 7] of 0 to 29%. The pest or weed control at 140 g/ha [1, 7] was 0 to 29%, the pest or weed control at 35 g/ha [1, 8] was 60 to 74% and the pest or weed control at 70 g/ha [1, 8] was 60 to 74%. It also gave a pest or weed control at 140 g/ha [1, 8] of 60 to 74%, a pest or weed control at 35 g/ha [2, 9] of 0 to 29% and a pest or weed control at 70 g/ha [2, 9] of 0 to 29%. For the same molecule, the pest or weed control at 140 g/ha [2, 9] was 75 to 84%, the pest or weed control at 35 g/ha [2, 10] was 95 to 100% and the pest or weed control at 70 g/ha [2, 10] was 95 to 100%. It also gave a pest or weed control at 140 g/ha [2, 10] of 95 to 100%, a pest or weed control at 35 g/ha [2, 11] of 0 to 29% and a pest or weed control at 70 g/ha [2, 11] of 0 to 29%. The pest or weed control at 140 g/ha [2, 11] was 60 to 74%, the pest or weed control at 35 g/ha [2, 12] was 85 to 94% and the pest or weed control at 70 g/ha [2, 12] was 95 to 100%. It also gave a pest or weed control at 140 g/ha [2, 12] of 95 to 100%, a pest or weed control at 35 g/ha [2, 13] of 0 to 29% and a pest or weed control at 70 g/ha [2, 13] of 0 to 29%. It also gave a pest or weed control at 140 g/ha [2, 13] of 60 to 74%, a pest or weed control at 35 g/ha [2, 14] of 85 to 94% and a pest or weed control at 70 g/ha [2, 14] of 85 to 94%. The pest or weed control at 140 g/ha [2, 14] was 85 to 94%.
